Our source for the TGI and GI50 values is PubChem BioAssay (NCI).

Where “and” joins values, the source holds several entries; their conditions need not be identical. Equal entries are not always repeated.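 Five compound concentrations were applied to cells in 96-well plates for 48 hours; endpoints were derived by simple linear interpolation of the resulting dose-response curve. GI50 = concentration required for 50% inhibition of growth. TGI is the concentration that stops growth completely.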

Test systems include NCI-H522 lung; UACC-257 melanoma; SNB-75 CNS; HL-60(TB) leukemia; OVCAR-4 ovarian; HCT-116 colon; OVCAR-8 ovarian; SF-295 CNS; EKVX NSCLC; HOP-92 NSCLC.
Common to all, as to assay: DTP human tumour cell line panel, 48 h

With `CCOC(=O)CCC(NC(=O)OCc1ccccc1)C(=O)NC(CCC(=O)OCC)C(=O)NC(CCC(=O)OCC)C(=O)NC(CCC(=O)OCC)C(=O)NC(CCC(=O)OCC)C(=O)NC(CCC(=O)OCC)C(=O)NC(CCC(=O)OCC)C(=O)OCC` (stereo not given), the TGI with NCI-H522 lung, with UACC-257 melanoma, in the assay with SNB-75 CNS, with HL-60(TB) leukemia, in the assay on OVCAR-4 ovarian and with HCT-116 colon was > 100 µM in each case. Besides, the TGI in the assay on OVCAR-8 ovarian is > 100 µM.
Take `COc1ccc(CCN2CC=Cn3c2nc2ccccc2c3=O)cc1`: the GI50 in the assay on NCI-H522 lung is 0.0113 µM; in the assay with SF-295 CNS, 26.9 nM; in the assay on EKVX NSCLC it was 0.185 µM; in the assay with UACC-257 melanoma it was 20.5 µM; in the assay on HOP-92 NSCLC, 127 nM; in the assay on HL-60(TB) leukemia it was < 11.6 nM. The figures for the GI50 in the assay on OVCAR-4 ovarian, with HCT-116 colon and in the assay on OVCAR-8 ovarian were 63.7 nM, 0.0347 µM and 54 nM, respectively. Also, the TGI is 0.0375 µM with NCI-H522 lung; > 100 µM in the assay with SF-295 CNS; > 100 µM in the assay with EKVX NSCLC; > 100 µM in the assay with UACC-257 melanoma; 29.5 µM in the assay with HOP-92 NSCLC; 0.0648 µM with HL-60(TB) leukemia. Further, the TGI in the assay with OVCAR-4 ovarian is > 96 µM; in the assay on HCT-116 colon it was > 100 µM; in the assay on OVCAR-8 ovarian, > 41 µM.
As for `C/C(=N/NC(=S)N1CCCCC1)c1ccccc1O`, the TGI in the assay on NCI-H522 lung, in the assay on SF-295 CNS, in the assay with EKVX NSCLC, with UACC-257 melanoma, in the assay on HOP-92 NSCLC and with HL-60(TB) leukemia was > 31.6 µM in each case. The TGI in the assay with OVCAR-4 ovarian and in the assay with OVCAR-8 ovarian was > 31.6 µM throughout.
For the molecule `O=C(c1ccc(Cl)cc1Cl)C1[C@H]2C(=O)N(c3ccc(Cc4ccc(N5C(=O)[C@@H]6ON(c7ccccc7)C(C(=O)c7ccc(Cl)cc7Cl)[C@@H]6C5=O)cc4)cc3)C(=O)[C@H]2ON1c1ccccc1` (stereo not given in full), the TGI with NCI-H522 lung, in the assay with SF-295 CNS, with UACC-257 melanoma, with SNB-75 CNS, in the assay with HL-60(TB) leukemia and in the assay with OVCAR-4 ovarian was > 50 µM each time. The TGI in the assay with HCT-116 colon and in the assay on OVCAR-8 ovarian was > 50 µM in each case.
With `COc1cc(OC)c2nc(C)c3c(c2c1)SCC3`, the TGI in the assay with NCI-H522 lung is 77.8 µM; in the assay on SF-295 CNS, 65.9 µM; with EKVX NSCLC it was 52.9 µM; with UACC-257 melanoma, 78.3 µM; in the assay with HL-60(TB) leukemia, > 100 µM; in the assay with OVCAR-4 ovarian, 38.5 µM. The TGI in the assay on HCT-116 colon is 48.5 µM; in the assay with OVCAR-8 ovarian, 35.4 µM.
For the molecule `CC(CN(C)C)/C(=N\Nc1ccccc1)c1ccccc1` (stereo not given), the concentration for total growth inhibition (TGI) with NCI-H522 lung amounted to 25.1 µM; in the assay on SF-295 CNS it was 0.358 µM; with EKVX NSCLC, 35.6 µM; with UACC-257 melanoma, 15.3 µM; in the assay with SNB-75 CNS, 66.8 µM; in the assay on HL-60(TB) leukemia, 8.34 µM. Also, the TGI in the assay with OVCAR-4 ovarian is 19.8 µM; in the assay with HCT-116 colon, > 100 µM; in the assay on OVCAR-8 ovarian, > 100 µM.
Take `CC1(C)CC(O)C(C)(C)[C@@H](O)C1` (stereo not given in full): the TGI with NCI-H522 lung, with SF-295 CNS, in the assay on EKVX NSCLC, with UACC-257 melanoma, in the assay with SNB-75 CNS and in the assay with HL-60(TB) leukemia was > 100 µM each time. Besides, the TGI in the assay on OVCAR-4 ovarian, in the assay on HCT-116 colon and in the assay on OVCAR-8 ovarian was > 100 µM throughout.
Regarding `CCOC(C[C@H](O[Si](C)(C)C(C)(C)C)[C@H]1COC(=S)S1)OCC`, the TGI in the assay on NCI-H522 lung is 55.6 µM; with SF-295 CNS it was > 100 µM; in the assay on EKVX NSCLC, > 100 µM; in the assay with UACC-257 melanoma it was > 100 µM; in the assay with HL-60(TB) leukemia it was > 100 µM; in the assay with HCT-116 colon, > 100 µM. Also, the TGI in the assay on OVCAR-8 ovarian is > 100 µM.
In the case of `CC1CCC/C1=C(/I)C(=O)c1ccccc1` (stereo not given), the TGI is > 100 µM in the assay with NCI-H522 lung; > 100 µM in the assay with SF-295 CNS; > 100 µM in the assay on EKVX NSCLC; > 100 µM in the assay with UACC-257 melanoma; 85 µM in the assay with SNB-75 CNS; 70.4 µM with HL-60(TB) leukemia. Moreover, the TGI in the assay with OVCAR-4 ovarian, in the assay with HCT-116 colon and with OVCAR-8 ovarian was > 100 µM each time.
On to `C=C1C(O)C2C(=C(CC)C13CC3)C(=O)C(C)(C)C2OC` (stereo not given), for which the GI50 in the assay with NCI-H522 lung was 37.6 µM; in the assay on SF-295 CNS, > 100000 nM; in the assay on EKVX NSCLC it was 82.6 µM; with UACC-257 melanoma, 35.6 µM; in the assay with HOP-92 NSCLC, 48400 nM; with OVCAR-4 ovarian, > 100000 nM. In addition, the GI50 in the assay on HCT-116 colon was 28.3 µM; with OVCAR-8 ovarian, 53100 nM. The TGI in the assay on NCI-H522 lung, in the assay on SF-295 CNS, with EKVX NSCLC, with UACC-257 melanoma, in the assay on HOP-92 NSCLC and in the assay with OVCAR-4 ovarian was > 100 µM each time. Further, the TGI in the assay on HCT-116 colon and with OVCAR-8 ovarian was > 100 µM throughout.
`COC(=O)C1(Cc2ccc3c(c2)CCC3)Cc2ccccc2C1O` (stereo not given): the TGI was 30.1 µM in the assay with NCI-H522 lung; 35.2 µM with SF-295 CNS; 69.4 µM in the assay with EKVX NSCLC; 31.5 µM with UACC-257 melanoma; > 100 µM in the assay on HL-60(TB) leukemia; 27.8 µM in the assay on OVCAR-4 ovarian. For the same molecule, the TGI in the assay with HCT-116 colon came to 31.8 µM; with OVCAR-8 ovarian, 36 µM.
`CCOC(=O)CC[C@H](NC(=O)c1nc[nH]c1[N+](=O)[O-])C(=O)OCC`: the TGI with NCI-H522 lung, in the assay with SF-295 CNS, in the assay with EKVX NSCLC, with UACC-257 melanoma, with HOP-92 NSCLC and in the assay with HL-60(TB) leukemia was > 100 µM each time. The total growth inhibition concentration (TGI) in the assay with OVCAR-4 ovarian, with HCT-116 colon and with OVCAR-8 ovarian was > 100 µM in each case.
On to `CCOC(=O)/C(C1=NCCN1)=C(\O)c1ccccc1`, for which the TGI in the assay with NCI-H522 lung, with SF-295 CNS, in the assay on EKVX NSCLC, in the assay with UACC-257 melanoma, with HL-60(TB) leukemia and in the assay on OVCAR-4 ovarian was > 100 µM in each case. Also, the TGI in the assay with HCT-116 colon and in the assay with OVCAR-8 ovarian was > 100 µM each time.
As to `Cc1cccc(/C=N/NC(=S)N2CCCC2)n1`, the TGI in the assay with NCI-H522 lung is > 100 µM; in the assay with SF-295 CNS, 4.24 µM; in the assay with UACC-257 melanoma, 9.51 µM and 12.1 µM; in the assay on HL-60(TB) leukemia it was 0.872 µM; in the assay on OVCAR-4 ovarian, 6.95 µM; with OVCAR-8 ovarian, > 100 µM. Moreover, the GI50 in the assay on SF-295 CNS was 1080 nM; in the assay on EKVX NSCLC it was 3.18 µM; in the assay with HOP-92 NSCLC, 536 nM; with HL-60(TB) leukemia, 236 nM; with OVCAR-8 ovarian, 624 nM.
